Test results: US20260042764A1, “COMPOSITIONS AND METHODS FOR INHIBITION OF KRAS” (TheRas, Inc., priority 2022, published 2026)

What was measured:
[1] = biological target: T1, Avi-KRAS G12R (1-169) GppNHp/RAF1 RBD-3xFLAG (52-151) (Homo sapiens, UniProt P01116, G12R); experiment: Raf1-KRAS G12R-GppNHP disruption HTRF assay (Biological Example 1); format: binding; settings: KRAS G12R-GppNHp/RAF1 RBD HTRF
T1 construct: Avi-KRAS G12R (1-169)
In short: (§1)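 First, protein mix in Tris pH 7.5 buffer with NaCl, MgCl2, BSA, Tween and 10% DMSO is incubated 1 h at room temperature. Next, reagent mix is added and incubated a further 1 h at room temperature. Finally, HTRF is read and activity normalized to DMSO.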

[2] = biological target: T2, Avi-KRAS G12V (2-169) GTP/RAF1 RBD-3xFLAG (51-131) (Homo sapiens, UniProt P01116, G12V); experiment: Raf1-KRAS G12V-GTP disruption HTRF assay (Biological Example 3); format: binding; settings: KRAS G12V, GTP-loaded
T2 construct: Avi-KRAS G12V (2-169)
In short: (§2)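 An HTRF assay measured disruption of 50 nM Avi-KRAS (2-169)-GTP (WT, G12C, G12D or G12V) bound to RAF1 RBD-3xFLAG (51-131). Buffer was Tris pH 7.5 with 5 mM MgCl2 and 10% DMSO. Compounds (30–0.005 μM, 3-fold, 10 points) were incubated 1 h at room temperature, and activity is given as % of DMSO.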

[3] = biological target: T3, Avi-KRAS G12V (1-169) GppNHp/RAF1 RBD-3xFLAG (52-151) (Homo sapiens, UniProt P01116, G12V); experiment: Raf1-KRAS G12V-GppNHP disruption HTRF assay (Biological Example 1); format: binding; settings: KRAS G12V-GppNHp/RAF1 RBD HTRF
T3 construct: Avi-KRAS G12V (1-169)
In short: as §1

[4] = biological target: T4, Avi-KRAS G12C (2-169) GTP/RAF1 RBD-3xFLAG (51-131) (Homo sapiens, UniProt P01116, G12C); experiment: Raf1-KRAS G12C-GTP disruption HTRF assay (Biological Example 3); format: binding; settings: KRAS G12C, GTP-loaded
T4 construct: Avi-KRAS G12C (2-169)
In short: as §2

GP2d cells (KRAS G12D) = experiment: Cell-based pERK HTRF assay in GP2d cell (Biological Example 2); settings: GP2d, GP2d (KRAS G12D) cells
In short: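 60 min compound, 0.25% DMSO, 9-pt half-log curve from 1 μM or 100 nM; DMEM/10% FBS.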

[5] = biological target: T5, Avi-KRAS G12D (2-169) GTP/RAF1 RBD-3xFLAG (51-131) (Homo sapiens, UniProt P01116, G12D); experiment: Raf1-KRAS G12D-GTP disruption HTRF assay (Biological Example 3); format: binding; settings: KRAS G12D, GTP-loaded
T5 construct: Avi-KRAS G12D (2-169)
In short: as §2

T4 sequence (P01116 2-169 isoform P01116-2 G12C): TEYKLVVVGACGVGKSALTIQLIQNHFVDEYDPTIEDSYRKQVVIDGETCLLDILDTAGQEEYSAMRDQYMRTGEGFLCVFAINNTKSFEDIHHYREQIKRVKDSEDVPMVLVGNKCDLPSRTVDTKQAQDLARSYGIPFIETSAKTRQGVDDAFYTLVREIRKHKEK
T2 sequence (P01116 2-169 isoform P01116-2 G12V): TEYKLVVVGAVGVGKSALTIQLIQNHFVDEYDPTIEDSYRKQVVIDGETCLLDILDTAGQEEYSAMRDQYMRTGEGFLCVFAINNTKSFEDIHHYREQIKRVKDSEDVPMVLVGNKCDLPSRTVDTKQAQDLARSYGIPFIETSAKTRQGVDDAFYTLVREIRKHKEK
T5 sequence (P01116 2-169 isoform P01116-2 G12D): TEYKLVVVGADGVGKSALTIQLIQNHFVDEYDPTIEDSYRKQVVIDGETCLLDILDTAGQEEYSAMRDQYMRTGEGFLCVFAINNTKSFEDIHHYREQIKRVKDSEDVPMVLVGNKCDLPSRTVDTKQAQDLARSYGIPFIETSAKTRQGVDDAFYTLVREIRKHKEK
T1 sequence (P01116 1-169 isoform P01116-2 G12R): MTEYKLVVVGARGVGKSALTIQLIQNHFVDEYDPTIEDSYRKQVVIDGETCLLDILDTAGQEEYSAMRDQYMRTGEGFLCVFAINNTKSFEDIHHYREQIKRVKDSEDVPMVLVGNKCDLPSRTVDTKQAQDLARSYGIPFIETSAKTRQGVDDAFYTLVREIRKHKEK
T3 sequence (P01116 1-169 isoform P01116-2 G12V): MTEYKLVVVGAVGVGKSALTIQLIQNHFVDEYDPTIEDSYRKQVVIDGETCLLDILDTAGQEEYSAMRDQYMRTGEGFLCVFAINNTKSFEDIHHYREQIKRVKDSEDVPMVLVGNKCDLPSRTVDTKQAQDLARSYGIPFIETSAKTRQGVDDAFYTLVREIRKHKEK

| IC50 [1] [nM] | IC50 [2] [nM] | IC50 [3] [nM] | IC50 [4] [nM] | IC50 (GP2d cells (KRAS G12D)) [nM] | IC50 (GP2d cells (KRAS G12D); pERK HTRF) [nM] | IC50 [5] [nM] | Structure (SMILES) |
| --- | --- | --- | --- | --- | --- | --- | --- |
| < 100 | ≤ 100 | < 100 | ≤ 100 | < 100 | < 100 | ≤ 100 | CCN(c1nc(OC[C@@]23CCCN2C[C@H](F)C3)nc2c(F)c(-c3ccc(F)c4sc(N)c(C#N)c34)c(C(F)(F)F)cc12)[C@H]1C[C@H](C)N(C(=O)COC)C1 (atropisomer, axis not shown) [Compound 538] |
| 100 to 1000 | 100 to 1000 | 100 to 1000 | 100 to 1000 | < 100 | < 100 | 100 to 1000 | CCN(c1nc(OC[C@@]23CCCN2C[C@H](F)C3)nc2c(F)c(-c3ccc(F)c4sc(N)c(C#N)c34)c(C(F)(F)F)cc12)[C@@H]1C[C@@H](C)N(C(C)=O)C1 (atropisomer, axis not shown) [Compound 527] |
| < 100 | ≤ 100 | < 100 | ≤ 100 | < 100 | < 100 | ≤ 100 | CCN(c1nc(OC[C@@]23CCCN2C[C@H](F)C3)nc2c(F)c(-c3ccc(F)c4sc(N)c(C#N)c34)c(C(F)(F)F)cc12)[C@H]1C[C@H]2COC(=O)N2C1 (atropisomer, axis not shown; (aS)) [Compound 518, 2-amino-4-((S)-4-(ethyl((6S,7aS)-3-oxotetrahydro-1H,3H-pyrrolo[1,2-c]oxazol-6-yl)amino)-8-fluoro-2-(((2R,7aS)-2-fluorotetrahydro-1H-pyrrolizin-7a(5H)-yl)methoxy)-6-(trifluoromethyl)quinazolin-7-yl)-7-fluorobenzo[b]thiophene-3-carbonitrile] |
| 1000 to 10000 | 1000 to 10000 | 100 to 1000 | 1000 to 10000 | < 100 | < 100 | 1000 to 10000 | CCN(c1nc(OC[C@@]23CCCN2C[C@H](F)C3)nc2c(F)c(-c3ccc(F)c4sc(N)c(C#N)c34)c(C(F)(F)F)cc12)[C@@H]1C[C@@H]2CCC(=O)N2C1 [Compound 511] |
| 100 to 1000 | 1000 to 10000 | 100 to 1000 | 100 to 1000 | < 100 | < 100 | 100 to 1000 | CN(C)C(=O)[C@@H]1CC[C@@H](N(C)c2nc(OC[C@@]34CCCN3C[C@H](F)C4)nc3c(F)c(-c4ccc(F)c5sc(N)c(C#N)c45)c(C(F)(F)F)cc23)C1 (atropisomer, axis not shown) [Compound 512] |
| 100 to 1000 | 100 to 1000 | 100 to 1000 | 100 to 1000 | < 100 | < 100 | 100 to 1000 | CCC(=O)N1C[C@H](N(CC)c2nc(OC[C@@]34CCCN3C[C@H](F)C4)nc3c(F)c(-c4ccc(F)c5sc(N)c(C#N)c45)c(C(F)(F)F)cc23)C[C@@H]1C (atropisomer, axis not shown) [Compound 533] |
| < 100 | ≤ 100 | < 100 | 100 to 1000 | < 100 | < 100 | ≤ 100 | CCN(c1nc(OC[C@@]23CCCN2C[C@H](F)C3)nc2c(F)c(-c3ccc(F)c4sc(N)c(C#N)c34)c(C(F)(F)F)cc12)[C@@H]1CC(=O)N(C2CC2)C1 [Compound 537] |
| 100 to 1000 | 100 to 1000 | 100 to 1000 | 100 to 1000 | < 100 | < 100 | 100 to 1000 | CCN(c1nc(OC[C@@]23CCCN2C[C@H](F)C3)nc2c(F)c(-c3ccc(F)c4sc(N)c(C#N)c34)c(C(F)(F)F)cc12)[C@@H]1CC(=O)N(C)C1 [Compound 520] |
| < 100 | 100 to 1000 | 100 to 1000 | 100 to 1000 | < 100 | < 100 | 100 to 1000 | CCN(c1nc(OC[C@@]23CCCN2C[C@H](F)C3)nc2c(F)c(-c3ccc(F)c4sc(N)c(C#N)c34)c(C(F)(F)F)cc12)C1C[C@@H](C)N(C(=O)C2CC2)C1 (stereo partly shown) [Compound 516] |
| < 100 | 100 to 1000 | < 100 | 100 to 1000 | < 100 | < 100 | ≤ 100 | CCN(c1nc(OC[C@@]23CCCN2C[C@H](F)C3)nc2c(F)c(-c3ccc(F)c4sc(N)c(C#N)c34)c(C(F)(F)F)cc12)[C@H]1CCN(C(=O)c2ccon2)C1 (atropisomer, axis not shown) [Compound 554] |
